In patent publication US20040132830A1, “Triphenylmethane kinesin inhibitors” (priority 2001, published 2004):

Assays:
A549 cells = conditions: cited from earlier work
[1] = tested on: Skov-3 cells (human ovarian cancer); assay: FACS analysis of cell cycle stage by DNA content (mitotic arrest); format: cell-based; conditions: treated 24 hours, paclitaxel at 10 nM
Method: FACS analysis to determine cell cycle stage by measuring DNA content was performed as follows. Skov-3 cells (human ovarian cancer) were split 1:10 for plating in 10 cm dishes and grown to subconfluence with RPMI 1640 medium containing 5% fetal bovine serum (FBS). The cells were then treated with either 10 nM paclitaxel, the test compound or 0.25% DMSO (vehicle for compounds) for 24 hours. Cells were then rinsed off the plates with PBS containing 5 mM EDTA, pelleted, washed once in PBS containing 1% FCS, and then fixed overnight in 85% ethanol at 4° C. Before analysis, the cells were pelleted, washed once, and stained in a solution of 10 μg propidium iodide and 250 μg of ribonuclease (RNAse) A per milliliter at 37° C. for half an hour. Flow cytometry analysis was performed on a Becton-Dickinson FACScan, and data from 10,000 cells per sample was analyzed with Modfit software.

Row | Compound | GI50 (A549 cells) | shift of cell population between cell cycle stages (DNA content) [1]
1 | CC(=O)O[C@H]1C(=O)[C@@]2(C)[C@H]([C@H](OC(=O)c3ccccc3)[C@]3(O)C[C@H](OC(=O)[C@H](O)[C@@H](NC(=O)c4ccccc4)c4ccccc4)C(C)=C1C3(C)C)[C@]1(OC(C)=O)CO[C@@H]1C[C@@H]2O [paclitaxel] | 4 nM | caused a shift in the population of cells from a G0/G1 cell cycle stage (2 n DNA content) to a G2/M cell cycle stage (4 n DNA content)
2 | O=c1[nH]cc(F)c(=O)[nH]1 [5-fluorouracil] | 1000 nM | –
3 | COc1cccc2c1C(=O)c1c(O)c3c(c(O)c1C2=O)C[C@@](O)(C(=O)CO)C[C@@H]3O[C@H]1C[C@H](N)[C@H](O)[C@H](C)O1 [doxorubicin] | 63 nM | –
4 | NC(=O)NO [hydroxyurea] | 500000 nM | –
